Results on 30 compounds are retold here after patent publication US9133204B2, “5-membered heterocyclic amides and related compounds” (H. Lundbeck A/S, priority 2007, dated 2015).

Some results are limits rather than exact numbers.

The first experiment addresses T1, P2X7 receptor (Homo sapiens, UniProt Q99572).
T1 construct: host or cells: SH-SY5Y
T1 sequence (Q99572 1-595): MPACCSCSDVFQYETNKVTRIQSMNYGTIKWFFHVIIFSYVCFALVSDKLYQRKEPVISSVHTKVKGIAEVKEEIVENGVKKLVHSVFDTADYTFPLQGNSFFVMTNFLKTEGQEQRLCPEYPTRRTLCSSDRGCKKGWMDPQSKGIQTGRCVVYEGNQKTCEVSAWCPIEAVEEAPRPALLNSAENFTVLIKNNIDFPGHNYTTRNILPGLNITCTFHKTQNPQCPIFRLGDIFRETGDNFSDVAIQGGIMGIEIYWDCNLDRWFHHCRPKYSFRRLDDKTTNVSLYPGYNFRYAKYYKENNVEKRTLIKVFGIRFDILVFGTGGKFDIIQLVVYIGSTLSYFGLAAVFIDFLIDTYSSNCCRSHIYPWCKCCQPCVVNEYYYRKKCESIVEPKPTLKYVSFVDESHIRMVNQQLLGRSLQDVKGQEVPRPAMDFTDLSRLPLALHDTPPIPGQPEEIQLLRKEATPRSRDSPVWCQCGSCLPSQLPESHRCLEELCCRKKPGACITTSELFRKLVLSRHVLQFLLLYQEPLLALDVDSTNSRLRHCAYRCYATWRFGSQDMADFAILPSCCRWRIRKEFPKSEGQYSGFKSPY
The experiment can be described thus: High throughput P2X7 calcium mobilization assay (Example 4A). Type of experiment: cell-based. As to conditions: SH-SY5Y cells; 50% decrease in fluorescence response of cells exposed to 80 μM BzATP; Table I. In short, it runs like this:
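Calcium mobilization read by FLIPR as peak fluorescence over 2 min after adding BzATP to a final 80 μM (about EC50). Beforehand, Fluo-4 AM-loaded SH-SY5Y cells sat 1 h at room temperature with compound at 1–2500 nM in pH 7.4 sucrose/HEPES buffer; signal minus no-agonist wells.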
Background: Calcium flux is commonly read through the fluorescence of an indicator in the cells.
As a reminder, the IC50 is the concentration needed to halve the response being measured. Consider `Cc1cnc(-n2cc(C(=O)NCC34CC5CC(CC(C5)C3)C4)c(C)n2)nc1C(=O)N1CCCC1` [Compound 104, N-(adamantan-1 ylmethyl)-3-methyl-1-[5-methyl-4-(pyrrolidin-1-ylcarbonyl)pyrimidin-2-yl]-1H-pyrazole-4-carboxamide], for which the IC50 was not above 2 µM.

Turning to `CCn1nc(C)c(Br)c1C(=O)NCC(CC(C)C)c1ccccc1` (stereo not drawn) [Compound 49, 4-bromo-1-ethyl-3-methyl-N-(4-methyl-2-phenylpentyl)-1H-pyrazole-5-carboxamide], the IC50 is not above 2 µM.

With `CCc1nc(-c2ncccn2)sc1C(=O)NCC1(c2ccc(OC)cc2)CCCC1` [Compound 269, 4-ethyl-N-{[1-(4-methoxyphenyl)cyclopentyl]methyl}-2-pyrimidin-2-yl-1,3-thiazole-5-carboxamide], the IC50 was not above 2 µM.

For the compound `Cn1nc(C(F)(F)F)cc1-c1ccc(C(=O)NCC23CC4CC(CC(C4)C2)C3)s1` [Compound 80, N-(1-adamantylmethyl)-5-[1-methyl-3-(trifluoromethyl)-1H-pyrazol-5-yl]thiophene-2-carboxamide], the IC50 was not above 2 µM.

For `O=C(NCC1(c2cccnc2)CCCCC1)c1sc(-n2ccnn2)nc1C(F)(F)F` [Compound 308, N-[(1-pyridin-3-ylcyclohexyl)methyl]-2-(1H-1,2,3-triazol-1-yl)-4-(trifluoromethyl)-1,3-thiazole-5-carboxamide], the IC50 is not above 2 µM.

Regarding `Cc1cc(-n2cc(C(=O)NCC34CC5CC(CC(C5)C3)C4)c(C)n2)nc(N)n1` [Compound 64, N-(adamantan-1-ylmethyl)-1-(2-amino-6-methylpyrimidin-4-yl)-3-methyl-1H-pyrazole-4-carboxamide], the IC50 is not above 2 µM.

On to `Cc1cnc(-n2cc(C(=O)NCC(CC(C)C)c3ccc(Cl)cc3)c(C)n2)nc1N` (stereo not drawn) [Compound 109, 1-(4-amino-5-methylpyrimidin-2-yl)-N-[2-(4-chlorophenyl)-4-methylpentyl]-3-methyl-1H-pyrazole-4-carboxamide], for which the IC50 was not above 2 µM.

Turning to `O=C(NC1C2CC3CC(C2)CC1C3)c1cn(-c2ncccn2)nc1C(F)(F)F` (stereo not drawn) [Compound 217, N-adamantan-2-yl-1-pyrimidin-2-yl-3-(trifluoromethyl)-1H-pyrazole-4-carboxamide], the half-inhibitory concentration (IC50) is not above 2 µM.

Turning to `CC(C)n1nc(CN2CCCC(N)C2)cc1C(=O)NCC12CC3CC(CC(C3)C1)C2` (stereo not drawn) [Compound 55, N-(adamantan-1-ylmethyl)-3-[(3-aminopiperidin-1-yl)methyl]-1-isopropyl-1H-pyrazole-5-carboxamide], the IC50 was not above 2 µM.

On to `Cc1cnc(-n2cc(C(=O)NCC34CC5CC(CC(C5)C3)C4)c(C(C)C)n2)nc1N` [Compound 100, N-(adamantan-1-ylmethyl)-1-(4-amino-5-methylpyrimidin-2-yl)-3-isopropyl-1H-pyrazole-4-carboxamide], for which the IC50 is not above 2 µM.

For `O=C(NCC1(c2ccc(Cl)nc2)CCCC1)c1sc(-c2ncccn2)nc1C(F)(F)F` [Compound 287, N-{[1-(6-chloropyridin-3-yl)cyclopentyl]methyl}-2-pyrimidin-2-yl-4-(trifluoromethyl)-1,3-thiazole-5-carboxamide], the IC50 is not above 2 µM.

Consider `O=C(NCC1(N2CCCCC2)CCCCC1)c1sc(-c2ncccn2)nc1C(F)(F)F` [Compound 296, N-[(1-piperidin-1-ylcyclohexyl)methyl]-2-pyrimidin-2-yl-4-(trifluoromethyl)-1,3-thiazole-5-carboxamide], for which the IC50 is not above 2 µM.

For `Cc1cnc(-n2cc(C(=O)NCC34CC5CC(CC(C5)C3)C4)c(C)n2)nc1-c1ccncc1` [Compound 119, N-(adamantan-1-ylmethyl)-3-methyl-1-(5-methyl-4-pyridin-4-ylpyrimidin-2-yl)-1H-pyrazole-4-carboxamide], the IC50 is not above 2 µM.

For the compound `CCn1nc(C)c(Br)c1C(=O)NCC(c1ccccc1)c1ccccc1` [Compound 50, 4-bromo-N-(2,2-diphenylethyl)-1-ethyl-3-methyl-1H-pyrazole-5-carboxamide], the IC50 was not above 2 µM.

Consider `Cn1nc(C(F)(F)F)cc1-c1ccc(C(=O)NCCC23CC4CC(CC(C4)C2)C3)s1` [Compound 85, N-[2-(1-adamantyl)ethyl]-5-[1-methyl-3-(trifluoromethyl)-1H-pyrazol-5-yl]thiophene-2-carboxamide], for which the IC50 was not above 2 µM.

On to `CC(C)c1nn(-c2nccs2)cc1C(=O)NCC12CC3CC(CC(C3)C1)C2` [Compound 133, N-(adamantan-1-ylmethyl)-3-isopropyl-1-(1,3-thiazol-2-yl)-1H-pyrazole-4-carboxamide], for which the IC50 is not above 2 µM.

In the case of `Cc1cnc(-n2cc(C(=O)NCC34CC5CC(CC(C5)C3)C4)c(C)n2)nc1-c1cccnc1` [Compound 95, N-(adamantan-1-ylmethyl)-3-methyl-1-(5-methyl-4-pyridin-3-ylpyrimidin-2-yl)-1H-pyrazole-4-carboxamide], the IC50 is not above 2 µM.

Take `O=C(NCC1(c2ccc(Cl)cc2)CCCCC1)c1cn(-c2ncccn2)nc1C(F)(F)F` [Compound 195, N-{[1-(4-chlorophenyl)cyclohexyl]methyl}-1-pyrimidin-2-yl-3-(trifluoromethyl)-1H-pyrazole-4-carboxamide]: the IC50 is not above 2 µM.

Take `O=C(NCC1(N2CCNCC2)CCCCC1)c1sc(-c2ncccn2)nc1C(F)(F)F` [Compound 313, N-[(1-piperazin-1-ylcyclohexyl)methyl]-2-pyrimidin-2-yl-4-(trifluoromethyl)-1,3-thiazole-5-carboxamide]: the IC50 was not above 2 µM.

`Cc1cnc(-n2cc(C(=O)NCC3(c4ccc(C(F)(F)F)cc4)CCCCC3)c(C(F)(F)F)n2)nc1N` [Compound 172, 1-(4-amino-5-methylpyrimidin-2-yl)-3-(trifluoromethyl)-N-({1-[4-(trifluoromethyl)phenyl]cyclohexyl}methyl)-1H-pyrazole-4-carboxamide]: the IC50 is not above 2 µM.

Turning to `CCc1nc(-c2ncccn2)sc1C(=O)NCC1(c2ccc(Cl)cc2)CCCCC1` [Compound 276, N-{[1-(4-chlorophenyl)cyclohexyl]methyl}-4-ethyl-2-pyrimidin-2-yl-1,3-thiazole-5-carboxamide], the IC50 was not above 2 µM.

Regarding `CC(C)n1cc(C2(CNC(=O)c3sc(-c4ncccn4)nc3C(F)(F)F)CCCCC2)cn1` [Compound 297, N-{[1-(1-isopropyl-1H-pyrazol-4-yl)cyclohexyl]methyl}-2-pyrimidin-2-yl-4-(trifluoromethyl)-1,3-thiazole-5-carboxamide], the IC50 was not above 2 µM.

As for `O=C(NCC12CC3CC(CC(C3)C1)C2)c1cn(-c2nccs2)nc1C(F)(F)F` [Compound 135, N-(adamantan-1-ylmethyl)-1-(1,3-thiazol-2-yl)-3-(trifluoromethyl)-1H-pyrazole-4-carboxamide], the IC50 was not above 2 µM.

Still in this experiment, the particulars now being: SH-SY5Y cells; 50% decrease in fluorescence response of cells exposed to 80 μM BzATP; flag after the MS data in Examples 1-2.
Turning to `CN(C)[C@@H]1CCN(c2nc(C(F)(F)F)c(C(=O)NCC3(c4cccnc4)CCCCC3)s2)C1` [Compound 27, 2-((R)-3-Dimethylamino-pyrrolidin-1-yl)-4-trifluoromethyl-thiazole-5-carboxylic acid (1-pyridin-3-yl-cyclohexylmethyl)-amide], the IC50 was not above 2 µM.

Take `Nc1nc(-n2cc(C(=O)NCC3(c4cccnc4)CCCCC3)c(C(F)(F)F)n2)ncc1F` [Compound 2, 1-(4-Amino-5-fluoropyrimidin-2-yl)-N-((1-(pyridin-3-yl)cyclohexyl)methyl)-3-(trifluoromethyl)-1H-pyrazole-4-carboxamide]: the IC50 was not above 2 µM.

For the compound `O=C(NCC12CC3CC(CC(C3)C1)C2)c1cn(-c2ncc(F)cn2)nc1C(F)F` [Compound 3, 3-(Difluoromethyl)-1-(5-fluoro-pyrimidin-2-yl)-1H-pyrazole-4-carboxylic acid (adamantan-1-ylmethyl)-amide], the IC50 is not above 2 µM.

For the compound `COc1ccc(C2(CNC(=O)c3sc(-c4cccnc4)nc3C)CCCCC2)cc1` [Compound 36, N-{[1-(4-methoxyphenyl)cyclohexyl]methyl}-4-methyl-2-pyridin-3-yl-1,3-thiazole-5-carboxamide], the IC50 was not above 2 µM.

Take `CCCC(CNC(=O)c1sc(-c2cccnc2)nc1C)c1ccc(Cl)cc1` (stereo not drawn) [Compound 35, N-[2-(4-chlorophenyl)pentyl}-4-methyl-2-pyridin-3-yl-1,3-thiazole-5-carboxamide]: the IC50 is not above 2 µM.

`Cc1ccc(C2(CNC(=O)c3sc(-c4cccnc4)nc3C)CCCCC2)cc1` [Compound 38, N-{[1-(4-methylphenyl)cyclohexyl]methyl}-4-methyl-2-pyridin-3-yl-1,3-thiazole-5-carboxamide]: the IC50 was not above 2 µM.

`O=C(NCC12CC3CC(CC(C3)C1)C2)c1cnn(-c2ncccn2)c1Cl` [Compound 8, N-(Adamantan-1-ylmethyl)-5-chloro-1-pyridimin-2-yl-1H-pyrazole-4-carboxamide]: the concentration for half-maximal inhibition (IC50) is not above 2 µM.
